From patent US20230346735A1, “Nutritional Composition Comprising Carnitine and Method for Treating or Preventing an Infection in a Mammal” (priority 2020, published 2023)

Tested on: ACE-2
Assay: ACE-2 surface protein in Calu-3 cells, flow cytometry
Format: cell-based, human
Details: Calu-3, 100, 500 and 1000 µM, less than L-carnitine
Experimental: ACE-2 surface expression protein in Calu-3 cells was evaluated using FACS flow cytometry sorting. […] Cells were detached with PBS/EDTA at room temperature. FBS-containing growth media was added to cells to inactivate TE. Cells were spun for 5 min at […]. Supernatant was removed and cells were washed twice in flow buffer (PBS+0.2% FBS). Between 100,000-200,000 cells were stained for ACE-2 and BST2 (absent in Calu-3and used as a control) for 30 min on ice using goat anti-ACE-2 (R&D Systems; AF933) and PE-conjugated BST2 (BioLegend; Cat # 348406). Cells were washed once and stained with Alexa Fluor 647 donkey anti-goat for 30 min on ice. Cells were washed once, resuspended in PBS/EDTA and samples were acquired on a FACS LSR Fortessa cytometer (BD Bioscience). Data were analyzed using Flowjo (Version 10.1).
The testing was repeated with D-Carnitine as well. Cells were either stained for ACE2 using either anti-ACE2 Ab, anti-BST2 Ab or the combination or both followed by secondary Ab isotype. […] The table represents the fluorescence counts.

C[N+](C)(C)C[C@@H](O)CC(=O)[O-] [D-carnitine]
ACE-2 surface protein levels: decreased significantly
